Source: patent US11053204B2, “Pyrimidinyloxy benzene derivatives as herbicides” (FMC Corporation, priority 2015, dated 2021)

How the values were obtained:
Type in all cases: in vivo
[1] = system: foxtail, giant (giant foxtail, Setaria faberii); assay: Test C postemergence, plant response rating; conditions: Setaria faberi, post-emergence
Method in brief: (§1)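 Pre-emergence: seeds sown in loam soil–sand blend or silt loam and sprayed with test chemicals in a non-phytotoxic solvent mixture with surfactant. Post-emergence: plants 2 to 18 cm (1- to 4-leaf stage) in peat-based potting medium, same formulation. Greenhouse 13 to 15 d; visual rating 0 (no effect) to 100 (complete control) versus controls.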

[2] = system: waterhemp (common waterhemp, Amaranthus rudis); assay: Test C postemergence, plant response rating; conditions: for Plant response rating, Waterhemp: scale 0 to 100; for Waterhemp plant response rating: scale 0 to 100 (0 no effect, 100 complete control)
Method in brief: as §1

soybean (Glycine max) = assay: Test C postemergence, plant response rating; conditions: Glycine max, post-emergence
Method in brief: as §1

[3] = system: ragweed (common ragweed, Ambrosia elatior); assay: Test C postemergence, plant response rating; conditions: Ambrosia artemisiifolia, post-emergence
Method in brief: as §1

[4] = system: galium (catchweed bedstraw, Galium aparine); assay: Test C postemergence, plant response rating; conditions: Galium, post-emergence
Method in brief: as §1

[5] = system: nutsedge, yellow (yellow nutsedge, Cyperus esculentus); assay: Test C postemergence, plant response rating; conditions: Cyperus, post-emergence
Method in brief: as §1

[6] = system: lambsquarters (Chenopodium album); assay: Test C postemergence, plant response rating; conditions: Chenopodium album, post-emergence
Method in brief: as §1

[7] = system: barnyardgrass (Echinochloa crus-galli); assay: Test C postemergence, plant response rating; conditions: Echinochloa crus-galli, post-emergence
Method in brief: as §1

[8] = system: oilseed rape (Brassica napus); assay: Test C postemergence, plant response rating; conditions: Brassica napus, post-emergence
Method in brief: as §1

[9] = system: crabgrass, large (large crabgrass, Digitaria sanguinalis); assay: Test C postemergence, plant response rating; conditions: Digitaria sanguinalis, post-emergence
Method in brief: as §1

[10] = system: oat, wild (wild oat Avena fatua); assay: Test C postemergence, plant response rating; conditions: Avena fatua, post-emergence
Method in brief: as §1

[11] = system: ryegrass, Italian (Italian ryegrass, Lolium multiflorum); assay: Test C postemergence, plant response rating; conditions: Lolium multiflorum, post-emergence
Method in brief: as §1

[12] = system: velvetleaf (Abutilon theophrasti); assay: Test C postemergence, plant response rating; conditions: Abutilon theophrasti, post-emergence
Method in brief: as §1

[13] = system: blackgrass (Alopecurus myosuroides); assay: Test C postemergence, plant response rating; conditions: Alopecurus myosuroides, post-emergence
Method in brief: as §1

corn (Zea mays) = assay: Test C postemergence, plant response rating; conditions: Zea mays, post-emergence
Method in brief: as §1

[14] = system: wheat (winter wheat, Triticum aestivum); assay: Test C postemergence, plant response rating; conditions: Triticum aestivum, post-emergence
Method in brief: as §1

[15] = system: galium (catchweed bedstraw, Galium aparine); assay: Test C preemergence, plant response rating
[16] = system: pigweed (Amaranthus retroflexus); assay: Test C preemergence, plant response rating; conditions: Preemergence
[17] = 62 g ai/ha, scale 0 to 100 (0 no effect, 100 complete control)
[18] = 125 g ai/ha, scale 0 to 100 (0 no effect, 100 complete control)

C=CCCOC(=O)c1c(Br)cccc1Oc1ncc(Cl)cn1 [Compound 21, 3-buten-1-yl 2-bromo-6-[(5-chloro-2-pyrimidinyl)oxy]benzoate]
pest or weed control at 16 g/ha ([1]; 16 g ai/ha, scale 0 to 100): 10%
pest or weed control at 31 g/ha ([1]; 31 g ai/ha, scale 0 to 100): 10%
pest or weed control at 62 g/ha [1, 17]: 20%
pest or weed control at 125 g/ha [1, 18]: 15%
Plant response rating, Waterhemp ([2]; 16 g ai/ha): 75
Plant response rating, Waterhemp ([2]; 31 g ai/ha): 85
Waterhemp plant response rating ([2]; 62 g ai/ha): 90
Waterhemp plant response rating ([2]; 125 g ai/ha): 85
plant injury at 16 g/ha (soybean (Glycine max); 16 g ai/ha, scale 0 to 100): 30%
plant injury at 31 g/ha (soybean (Glycine max); 31 g ai/ha, scale 0 to 100): 40%
plant injury at 62 g/ha (soybean (Glycine max); [17]): 60%
plant injury at 125 g/ha (soybean (Glycine max); [18]): 60%
pest or weed control at 16 g/ha ([3]; 16 g ai/ha, scale 0 to 100): 10%
pest or weed control at 31 g/ha ([3]; 31 g ai/ha, scale 0 to 100): 10%
pest or weed control at 62 g/ha [3, 17]: 45%
pest or weed control at 125 g/ha [3, 18]: 55%
pest or weed control at 16 g/ha ([4]; 16 g ai/ha, scale 0 to 100): 55%
pest or weed control at 31 g/ha ([4]; 31 g ai/ha, scale 0 to 100): 80%
pest or weed control at 62 g/ha [4, 17]: 75%
pest or weed control at 125 g/ha [4, 18]: 80%
pest or weed control at 16 g/ha ([5]; 16 g ai/ha, scale 0 to 100): 0%
pest or weed control at 31 g/ha ([5]; 31 g ai/ha, scale 0 to 100): 0%
pest or weed control at 62 g/ha [5, 17]: 5%
pest or weed control at 125 g/ha [5, 18]: 10%
pest or weed control at 16 g/ha ([6]; 16 g ai/ha, scale 0 to 100): 65%
pest or weed control at 31 g/ha ([6]; 31 g ai/ha, scale 0 to 100): 60%
pest or weed control at 62 g/ha [6, 17]: 65%
pest or weed control at 125 g/ha [6, 18]: 85%
pest or weed control at 16 g/ha ([7]; 16 g ai/ha, scale 0 to 100): 10%
pest or weed control at 31 g/ha ([7]; 31 g ai/ha, scale 0 to 100): 10%
pest or weed control at 62 g/ha [7, 17]: 20%
pest or weed control at 125 g/ha [7, 18]: 20%
plant injury at 16 g/ha ([8]; 16 g ai/ha, scale 0 to 100): 30%
plant injury at 31 g/ha ([8]; 31 g ai/ha, scale 0 to 100): 40%
plant injury at 62 g/ha [8, 17]: 50%
plant injury at 125 g/ha [8, 18]: 30%
pest or weed control at 16 g/ha ([9]; 16 g ai/ha, scale 0 to 100): 10%
pest or weed control at 31 g/ha ([9]; 31 g ai/ha, scale 0 to 100): 20%
pest or weed control at 62 g/ha [9, 17]: 25%
pest or weed control at 125 g/ha [9, 18]: 35%
pest or weed control at 16 g/ha ([10]; 16 g ai/ha, scale 0 to 100): 0%
pest or weed control at 31 g/ha ([10]; 31 g ai/ha, scale 0 to 100): 0%
pest or weed control at 62 g/ha [10, 17]: 5%
pest or weed control at 125 g/ha [10, 18]: 5%
pest or weed control at 16 g/ha ([11]; 16 g ai/ha, scale 0 to 100): 0%
pest or weed control at 31 g/ha ([11]; 31 g ai/ha, scale 0 to 100): 0%
pest or weed control at 62 g/ha [11, 17]: 0%
pest or weed control at 125 g/ha [11, 18]: 15%
pest or weed control at 16 g/ha ([12]; 16 g ai/ha, scale 0 to 100): 40%
pest or weed control at 31 g/ha ([12]; 31 g ai/ha, scale 0 to 100): 60%
pest or weed control at 62 g/ha ([12]; 62 g ai/ha, scale 0 to 100 (0 no effect, 100 complete control), read-out: Velvetleaf plant response rating): 60%
pest or weed control at 125 g/ha [12, 18]: 70%
pest or weed control at 16 g/ha ([13]; 16 g ai/ha, scale 0 to 100): 0%
pest or weed control at 31 g/ha ([13]; 31 g ai/ha, scale 0 to 100): 0%
pest or weed control at 62 g/ha [13, 17]: 5%
pest or weed control at 125 g/ha [13, 18]: 5%
Corn plant response rating (crop injury, 0 = no effect, 100 = complete kill) at 16 g/ha (corn (Zea mays); 16 g ai/ha, scale 0 to 100): 5%
Corn plant response rating (crop injury, 0 = no effect, 100 = complete kill) at 31 g/ha (corn (Zea mays); 31 g ai/ha, scale 0 to 100): 5%
plant injury at 62 g/ha (corn (Zea mays); [17]): 15%
plant injury at 125 g/ha (corn (Zea mays); [18]): 20%
plant injury at 16 g/ha ([14]; 16 g ai/ha, scale 0 to 100): 0%
plant injury at 31 g/ha ([14]; 31 g ai/ha, scale 0 to 100): 0%
plant injury at 62 g/ha ([14]; 62 g ai/ha, scale 0 to 100 (0 no effect, 100 complete control), read-out: Wheat plant response rating): 0%
plant injury at 125 g/ha [14, 18]: 0%
Plant response rating, Galium ([15]; 31 g ai/ha, scale 0 to 100): 0
Plant response rating, Galium ([15]; 62 g ai/ha, scale of 0 to 100): 5
Plant response rating, Galium ([15]; 125 g ai/ha, scale of 0 to 100): 100
Plant response rating, Pigweed ([16]; 125 g ai/ha, scale of 0 to 100): 100
Plant response rating, Pigweed ([16]; 16 g ai/ha, scale 0 to 100): 5
Plant response rating, Pigweed ([16]; 31 g ai/ha, scale 0 to 100): 55
Plant response rating, Pigweed ([16]; 62 g ai/ha, scale 0 to 100): 98
